Assay results reported in patent publication US7033615B2, “Methods for regulating levels of zinc, cadmium and calcium in humans and for diagnosing, or screening for the risk of developing, diseases associated with abnormal levels of cadmium, zinc and calcium in body fluids and tissues” (CancEr2 Inc., priority 1999, dated 2006).

What was measured:
[1] = Counter-exchange of serum cadmium to erythrocytes (erythrocyte Cd/(erythrocyte Cd+serum Cd)) in men given cadmium sulfate; assay type: in vivo; conditions: CdSO4 1 mg daily
Method: (§1) Three healthy men with low PSA levels (below 2 ng/ml) volunteered for weekly blood and urine collection while a serial treatment of zinc, zinc with cadmium, and cadmium was administered. Treatment was given daily over a nine week period, followed by three weeks of continued sampling with no treatment. The zinc was administered in the form of zinc sulfate (Zn SO4) at a daily dosage of 75 mg. The cadmium was administered in the form of cadmium sulfate (CdSO4) at a daily dosage of 1 mg. Blood and urine were collected one day prior to the beginning of treatment for purposes of establishing a baseline level of chemicals in the blood and urine. Zinc salt administration began on the second day of the study and was administered each morning. On day 15, the cadmium salt administration was begun in the evening, with continued zinc salt administration continuing in the morning. Zinc administration was discontinued on day 43; cadmium administration continued through day 57. On days 58–78 of the study, neither zinc nor cadmium was administered, but blood and urine samples continued to be collected. Blood and urine were collected one day each week (days 1, 8, 15, etc.) for a total of 12 collection days over an 11 week period. […]
(§2) The second syringe contained no EDTA and was used to collect blood serum. […] All processed blood samples were stored in a −80° C. freezer until analyzed. […]

[2] = system: erythrocytes; assay: Blockage of calcium penetration into erythrocytes (serum calcium/erythrocyte calcium) in men given cadmium sulfate; assay type: in vivo; conditions: three men, CdSO4 1 mg daily
Method: as §1, §2

[3] = system: rat tissue vs human tissue; conditions: rat tissue more sensitive than human tissue; cited from earlier work

Structure (SMILES): O=S(=O)([O-])[O-].[Cd+2] [cadmium, cadmium sulfate]
- increase of counter-exchange of serum cadmium to erythrocytes in each man ([1]; three healthy low-PSA men, minimum increase per man): ≥ 116%
- average cadmium counter-exchange after cadmium treatment (mean+/-S.D.) ([1]; three men, increased from 0.311 +/-0.166): 0.466+/−0.077
- increase of blockage to calcium penetration in each man [2]: 178–330%
- average blockage of calcium penetration after cadmium treatment (mean+/-S.D.) ([2]; increased from 114.79+/-21.135, p=0.0492): 314.001+/−150.942
- sensitivity of rat tissue to cadmium relative to human tissue [3]: 30 times
